Laboratory results: US20180155757A1, “IDENTIFICATION OF BACTERIA THAT ARE RESISTANT TO CARBAPENEMS BY MEMBRANE IMPERVIOUSNESS” (BIOMÉRIEUX, priority 2015, published 2018)

How the values were obtained:
Test in all cases: Etest MIC of indicator carbapenems on MH II agar without/with PMBN
Assay type in all cases: cell-based
[1] = system: E. coli 1008077 (VIM-1 producer)
Method: (§1) The determinations of antibiotic MIC were carried out on solid culture media with the Etest® method. To do this, Etest® strips (bioMérieux, France) were used: • Etest® Imipenem IM 32, and • Etest® Ertapenem ETP 32, and also solid culture media, differing from one another by virtue of their non-inhibitory concentrations of PMBN.
(§2) These solid culture media are prepared in Petri dishes (0=145 mm; V=50 ml) on a base of MH II Agar (Becton Dickinson®, United States), more or less supplemented with PMBN. The PMBN concentrations range from 0 up to concentrations equivalent to one fifth of the MIC of PMBN (⅕ MICPMBN).
(§3) Using a swab and the Retro C80™ rota-plater (bioMérieux, France), the culture media were inoculated with the bacteria, originating from an inoculum of 0.5 McFarland, prepared in 0.85% NaCl solution from colonies subcultured the day before on MH II agar.
(§4) The various Etest® strips are then deposited on the surface of the culture media. After 16 to 20 hours of incubation at 35° C., the MICS were read.
(§5) To do this, imipenem and ertapenem were used as indicator carbapenems. Non-inhibitory concentrations of PMBN, equivalent to concentrations of one tenth ( 1/10), one eighth (⅛) and one fifth (⅕) of the MIC of PMBN, were applied.

[2] = system: K. pneumoniae 1108016 (VIM-1 producer)
Method: as §1, §2, §3, §4, §5

[3] = system: K. pneumoniae 1104053 (OXA-48 producer)
Method: as §1, §2, §3, §4, §5

[4] = system: E. coli 0506040 (VIM-1 producer)
Method: as §1, §2, §3, §4, §5

[5] = system: K. pneumoniae 1108007 (VIM-1 producer)
Method: as §1, §2, §3, §4, §5

[6] = system: K. pneumoniae 1012335 (OXA-48 producer)
Method: as §1, §2, §3, §4, §5

[7] = system: E. cloacae 1008073 (VIM-1 producer)
Method: as §1, §2, §3, §4, §5

[8] = system: E. cloacae 0901026 (KPC-2 producer)
Method: as §1, §2, §3, §4, §5

[9] = system: K. pneumoniae 0901027 (KPC-3 producer)
Method: as §1, §2, §3, §4, §5

C. freundii 0403012 = system: C. freundii 0403012
Method: as §1, §2, §3, §4, §5

[10] = system: E. cloacae 1101172 (NDM producer)
Method: as §1, §2, §3, §4, §5

[11] = system: E. cloacae 1008079 (IMP-1 producer)
Method: as §1, §2, §3, §4, §5

[12] = system: E. cloacae 1008096 (VIM-1 producer)
Method: as §1, §2, §3, §4, §5

[13] = system: K. pneumoniae 1108006 (KPC-2 producer)
Method: as §1, §2, §3, §4, §5

[14] = system: E. coli 1012292 (KPC-2 producer)
Method: as §1, §2, §3, §4, §5

[15] = system: K. pneumoniae 1108001 (KPC-2 producer)
Method: as §1, §2, §3, §4, §5

C. freundii 1204047 = system: C. freundii 1204047
Method: as §1, §2, §3, §4, §5

[16] = system: S. marcescens 1008175 (IMP-1 producer)
Method: as §1, §2, §3, §4, §5

E. cloacae 9304026 = system: E. cloacae 9304026
Method: as §1, §2, §3, §4, §5

[17] = system: K. pneumoniae 1108002 (KPC-3 producer)
Method: as §1, §2, §3, §4, §5

C[C@@H](O)[C@H]1C(=O)N2C(C(=O)O)=C(SCCN=CN)C[C@H]12 [IM, imipenem]
MIC ([1]; [PMBN] 0): 16 µg/mL | MIC ([1]; [PMBN] MIC/5): 16 µg/mL | MIC ([1]; [PMBN] MIC/8): 16 µg/mL | MIC ([1]; [PMBN] MIC/10): 8 µg/mL | MIC ([2]; [PMBN] 0): 4 µg/mL | MIC ([2]; [PMBN] MIC/5): 4 µg/mL | MIC ([2]; [PMBN] MIC/8): 8 µg/mL | MIC ([2]; [PMBN] MIC/10): 8 µg/mL | MIC ([3]; [PMBN] 0): 2 µg/mL | MIC ([3]; [PMBN] MIC/5): 2 µg/mL | MIC ([3]; [PMBN] MIC/8): 2 µg/mL | MIC ([3]; [PMBN] MIC/10): 2 µg/mL | MIC ([4]; [PMBN] 0): 4 µg/mL | MIC ([4]; [PMBN] MIC/5): 4 µg/mL | MIC ([4]; [PMBN] MIC/8): 4 µg/mL | MIC ([4]; [PMBN] MIC/10): 4 µg/mL | MIC ([5]; [PMBN] 0): 32 µg/mL | MIC ([5]; [PMBN] MIC/5): 16 µg/mL | MIC ([5]; [PMBN] MIC/8): 16 µg/mL | MIC ([5]; [PMBN] MIC/10): 16 µg/mL | MIC ([6]; [PMBN] 0): 2 µg/mL | MIC ([6]; [PMBN] MIC/5): 2 µg/mL | MIC ([6]; [PMBN] MIC/8): 2 µg/mL | MIC ([6]; [PMBN] MIC/10): 2 µg/mL | MIC ([7]; [PMBN] 0): 0.25 µg/mL | MIC ([7]; [PMBN] MIC/5): 0.25 µg/mL | MIC ([7]; [PMBN] MIC/8): 0.25 µg/mL | MIC ([7]; [PMBN] MIC/10): 0.25 µg/mL | MIC ([8]; [PMBN] 0): 16 µg/mL | MIC ([8]; [PMBN] MIC/5): 8 µg/mL | MIC ([8]; [PMBN] MIC/8): 8 µg/mL | MIC ([8]; [PMBN] MIC/10): 16 µg/mL | MIC ([9]; [PMBN] 0): 8 µg/mL | MIC ([9]; [PMBN] MIC/5): 16 µg/mL | MIC ([9]; [PMBN] MIC/8): 8 µg/mL | MIC ([9]; [PMBN] MIC/10): 16 µg/mL | MIC (C. freundii 0403012; [PMBN] 0): 4 µg/mL | MIC (C. freundii 0403012; [PMBN] MIC/5): 1 µg/mL | MIC (C. freundii 0403012; [PMBN] MIC/8): 1 µg/mL | MIC (C. freundii 0403012; [PMBN] MIC/10): 2 µg/mL | MIC ([10]; [PMBN] 0): 4 µg/mL | MIC ([10]; [PMBN] MIC/5): 4 µg/mL | MIC ([10]; [PMBN] MIC/8): 16 µg/mL | MIC ([10]; [PMBN] MIC/10): 8 µg/mL | MIC ([11]; [PMBN] 0): 2 µg/mL | MIC ([11]; [PMBN] MIC/5): 2 µg/mL | MIC ([11]; [PMBN] MIC/8): 2 µg/mL | MIC ([11]; [PMBN] MIC/10): 4 µg/mL | MIC ([12]; [PMBN] 0): 4 µg/mL | MIC ([12]; [PMBN] MIC/5): 4 µg/mL | MIC ([12]; [PMBN] MIC/8): 8 µg/mL | MIC ([12]; [PMBN] MIC/10): 8 µg/mL | MIC ([13]; [PMBN] 0): 32 µg/mL | MIC ([13]; [PMBN] MIC/5): 32 µg/mL | MIC ([13]; [PMBN] MIC/8): 64 µg/mL | MIC ([13]; [PMBN] MIC/10): 32 µg/mL | MIC ([14]; [PMBN] 0): 8 µg/mL | MIC ([14]; [PMBN] MIC/5): 1 µg/mL | MIC ([14]; [PMBN] MIC/8): 4 µg/mL | MIC ([14]; [PMBN] MIC/10): 4 µg/mL | MIC ([15]; [PMBN] 0): 8 µg/mL | MIC ([15]; [PMBN] MIC/5): 4 µg/mL | MIC ([15]; [PMBN] MIC/8): 8 µg/mL | MIC ([15]; [PMBN] MIC/10): 8 µg/mL | MIC (C. freundii 1204047; [PMBN] 0): 1 µg/mL | MIC (C. freundii 1204047; [PMBN] MIC/5): 1 µg/mL | MIC (C. freundii 1204047; [PMBN] MIC/8): 1 µg/mL | MIC (C. freundii 1204047; [PMBN] MIC/10): 2 µg/mL | MIC ([16]; [PMBN] 0): 128 µg/mL | MIC ([16]; [PMBN] MIC/5): 256 µg/mL | MIC ([16]; [PMBN] MIC/8): 256 µg/mL | MIC ([16]; [PMBN] MIC/10): 128 µg/mL | MIC (E. cloacae 9304026; [PMBN] 0): 8 µg/mL | MIC (E. cloacae 9304026; [PMBN] MIC/5): 4 µg/mL | MIC (E. cloacae 9304026; [PMBN] MIC/8): 4 µg/mL | MIC (E. cloacae 9304026; [PMBN] MIC/10): 4 µg/mL | MIC ([17]; [PMBN] 0): 16 µg/mL | MIC ([17]; [PMBN] MIC/5): 16 µg/mL | MIC ([17]; [PMBN] MIC/8): 16 µg/mL | MIC ([17]; [PMBN] MIC/10): 16 µg/mL
